Assay results from US10882856B2 (BeiGene, Ltd., priority 2017, dated 2021).
Structures can show the parent of a compound that is named as a salt.

What was measured:
[1] = target: T1, IDO1 (Homo sapiens, UniProt P14902); experiment: Hela cell-based IDO1 assay; settings: Hela cells
Method in brief: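 HeLa cells were seeded at 8000 per well in 96-well plates in phenol red-free DMEM with 10% FBS. After 4 hours, DMSO-diluted compound dilutions were added with IFN-γ (final 100 ng/mL) and 0.4 mM L-Trp, and cells were kept 48 hours at 37 °C, 5% CO2. Supernatant was deproteinised with trichloroacetic acid, and kynurenine was measured at 480 nm after adding 2% 4-(dimethylamino)benzaldehyde. Potency came from four-parameter logistic fits in XLfit.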

[2] = target: T2, cellular TDO2 in HEK293-TDO2 cells (Homo sapiens, UniProt P48775); experiment: 293-TDO2 cell-based assay (Kyn colorimetric); settings: 48 hours of incubation
T2 construct: expressed in transfected cells; host or cells: HEK293 (ATCC), stably transfected
T2 sequence (P48775 whole entry): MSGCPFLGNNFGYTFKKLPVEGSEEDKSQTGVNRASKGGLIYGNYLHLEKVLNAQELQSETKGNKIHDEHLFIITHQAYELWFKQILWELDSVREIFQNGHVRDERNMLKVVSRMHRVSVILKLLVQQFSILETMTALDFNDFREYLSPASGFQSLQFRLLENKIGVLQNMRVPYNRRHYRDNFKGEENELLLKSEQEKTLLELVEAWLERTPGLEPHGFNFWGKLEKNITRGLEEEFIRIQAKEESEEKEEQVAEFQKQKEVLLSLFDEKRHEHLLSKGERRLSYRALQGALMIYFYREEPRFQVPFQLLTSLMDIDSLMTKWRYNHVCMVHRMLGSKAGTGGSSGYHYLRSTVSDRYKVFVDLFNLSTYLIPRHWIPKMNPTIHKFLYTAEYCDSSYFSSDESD
Method in brief: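 Kyn formed from L-Trp was read colorimetrically at 480 nm (TCA deproteinisation, then 2% 4-(dimethylamino)benzaldehyde). Compounds were added to 293-TDO2 cells 4 h post-seeding and left 48 h at 37° C. A four-parameter logistic model gave IC50 values.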

[3] = target: T1, IDO1; experiment: IDO1 enzymatic assay; type: biochemical; set-up: His tag (N); made in house; host or cells: E. coli; settings: read-out: Enzyme IC50 IDO1
Method in brief: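 Recombinant IDO1 carrying an N-terminal His tag and purified from E. coli was used at 50 nM with test compound, 1.3 mM D-tryptophan, 5 mM L-ascorbic acid, methylene blue and 0.4 mg/mL catalase in 50 mM potassium phosphate pH 7.5 containing 0.1% BSA. This mixture was incubated at 24 °C for 1.5 hours, after which N'-formylkynurenine formation was followed continuously at 321 nm for 1 hour and activity was taken as the slope. IC50 was derived from the enzyme activity remaining as compound concentration increased.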

T1 sequence (P14902 whole entry): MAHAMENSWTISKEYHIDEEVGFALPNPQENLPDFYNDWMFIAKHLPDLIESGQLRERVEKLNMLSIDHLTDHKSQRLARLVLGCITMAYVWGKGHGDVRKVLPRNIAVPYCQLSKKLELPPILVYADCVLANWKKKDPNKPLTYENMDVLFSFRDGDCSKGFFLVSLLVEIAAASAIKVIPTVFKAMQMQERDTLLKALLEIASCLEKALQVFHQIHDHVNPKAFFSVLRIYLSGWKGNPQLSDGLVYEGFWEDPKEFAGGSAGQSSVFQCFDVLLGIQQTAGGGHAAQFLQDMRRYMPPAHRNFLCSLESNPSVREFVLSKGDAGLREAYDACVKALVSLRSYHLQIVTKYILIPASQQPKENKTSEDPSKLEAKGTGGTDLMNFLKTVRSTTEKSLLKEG

Compound | EC50 [1] [nM] | EC50 [2] [nM] | IC50 [3] [nM]
O[C@H](c1c(C2CC2)ccc2cncn12)[C@H]1CC[C@@H](c2ccc(OC3CCOCC3)cc2)CC1 [Example D114d, (S)-(6-cyclopropylimidazo[1,5-a]pyridin-5-yl)((1 s,4R)-4-(4-((tetrahydro-2H-pyran-4-yl)oxy)phenyl)cyclohexyl)methanol] | 5110 | > 10000 | 1400
OC(c1c(C2CC2)ccc2cncn12)C1CCC(c2ccc(Br)cc2)CC1 (stereo not drawn) [Example D118, (4-(4-bromophenyl)cyclohexyl)(6-cyclopropylimidazo[1,5-a]pyridin-5-yl)methanol] | 546 | > 10000 | 44
OC(c1c(C2CC2)ccc2cncn12)C1CCC(c2ccc(-c3ccccc3)cc2)CC1 (stereo not drawn) [Example D119, (4-([1,1′-biphenyl]-4-yl)cyclohexyl)(6-cyclopropylimidazo[1,5-a]pyridin-5-yl)methanol] | 668 | > 10000 | 64
OC(c1c(C2CC2)ccc2cncn12)C1CCC(c2ccc(Oc3ccccc3)cc2)CC1 (stereo not drawn) [Example D120, (6-cyclopropylimidazo[1,5-a]pyridin-5-yl)(4-(4-phenoxyphenyl)cyclohexyl)methanol] | 700 | > 10000 | 100
O=C(Nc1ccc(C2CCC(C(O)c3c(C4CC4)ccc4cncn34)CC2)cc1)OCc1ccccc1 (stereo not drawn) [Example D121] | 606 | > 10000 | 73
O=Cc1ccc(C2CCC(C(O)c3c(C4CC4)ccc4cncn34)CC2)cc1 (stereo not drawn) [Example D123, 4-(4-((6-cyclopropylimidazo[1,5-a]pyridin-5-yl)(hydroxy)methyl)cyclohexyl)benzaldehyde] | 462 | > 10000 | 54
CN(C)C(=O)c1ccc(C2CCC(C(O)c3c(C4CC4)ccc4cncn34)CC2)cc1 (stereo not drawn) [Example D125, 4-(4-((6-cyclopropylimidazo[1,5-a]pyridin-5-yl)(hydroxy)methyl)cyclohexyl)-N,N-dimethylbenzamide] | 843 | > 10000 | 24
OC(c1c(C2CC2)ccc2cncn12)C1CCC(c2ccc(Cl)cc2F)CC1 (stereo not drawn) [Example D131, (4-(4-chloro-2-fluorophenyl)cyclohexyl)(6-cyclopropylimidazo[1,5-a]pyridin-5-yl)methanol] | 578 | > 10000 | 47
O[C@@H](c1c(C2CC2)ccc2cncn12)[C@H]1CC[C@H](c2ccc(Cl)cc2F)CC1 [Example D131b, (R)-((1r,4R)-4-(4-chloro-2-fluorophenyl)cyclohexyl)(6-cyclopropylimidazo[1,5-a]pyridin-5-yl)methanol hydrochloride] | 6490 | > 10000 | > 10000
OC(c1c(C2CC2)ccc2cncn12)C1CCC(c2cccc(F)c2F)CC1 (stereo not drawn) [Example D132, (6-cyclopropylimidazo[1,5-a]pyridin-5-yl)(4-(2,3-difluorophenyl)cyclohexyl)methanol] | 378 | > 10000 | 55
OC(c1c(C2CC2)ccc2cncn12)C1CCC(c2ccc3sccc3c2)CC1 (stereo not drawn) [Example D133, (4-(benzo[b]thiophen-5-yl)cyclohexyl)(6-cyclopropylimidazo[1,5-a]pyridin-5-yl)methanol] | 496 | > 10000 | 44
OC(c1c(C2CC2)ccc2cncn12)C1CCC(c2ccc3ccsc3c2)CC1 (stereo not drawn) [Example D134, (4-(benzo[b]thiophen-6-yl)cyclohexyl)(6-cyclopropylimidazo[1,5-a]pyridin-5-yl)methanol] | 364 | > 10000 | 61
Oc1ccc(C2CCC(C(O)c3c(C4CC4)ccc4cncn34)CC2)c2ccccc12 (stereo not drawn) [Example D138, (6-cyclopropylimidazo[1,5-a]pyridin-5-yl)(4-(4-hydroxynaphthalen-1-yl)cyclohexyl)methanol] | 583 | > 10000 | 62
COc1ccc(C2CCC(C(O)c3c(C4CC4)ccc4cncn34)CC2)c2ccccc12 (stereo not drawn) [Example D139, (6-cyclopropylimidazo[1,5-a]pyridin-5-yl)(4-(4-methoxynaphthalen-1-yl)cyclohexyl)methanol] | 977 | > 10000 | 75

Continued by falling EC50 [1], values first:

EC50 [1] [nM] | EC50 [2] [nM] | IC50 [3] [nM] | Compound
358 | > 10000 | 51 | OC(c1c(C2CC2)ccc2cncn12)C1CCC(c2ccc3ccccc3c2)CC1 (stereo not drawn) [Example D136, (6-cyclopropylimidazo[1,5-a]pyridin-5-yl)(4-(naphthalen-2-yl)cyclohexyl)methanol]
279 | > 10000 | 50 | OC(c1c(C2CC2)ccc2cncn12)C1CCC(c2ccc(F)cc2Cl)CC1 (stereo not drawn) [Example D130, (4-(2-chloro-4-fluorophenyl)cyclohexyl)(6-cyclopropylimidazo[1,5-a]pyridin-5-yl)methanol]
275 | > 10000 | 48 | OC(c1c(C2CC2)ccc2cncn12)C1CCC(c2ccccc2Cl)CC1 (stereo not drawn) [Example D117]
260 | > 10000 | 41 | OC(c1c(C2CC2)ccc2cncn12)C1CCC(c2ccc(Cl)c(F)c2)CC1 (stereo not drawn) [Example D128, (4-(4-chloro-3-fluorophenyl)cyclohexyl)(6-cyclopropylimidazo[1,5-a]pyridin-5-yl)methanol]
228 | > 10000 | 28 | Nc1ccc(C2CCC(C(O)c3c(C4CC4)ccc4cncn34)CC2)cc1 (stereo not drawn) [Example D122, (4-(4-aminophenyl)cyclohexyl)(6-cyclopropylimidazo[1,5-a]pyridin-5-yl)methanol]
188 | > 10000 | 22 | CNC(=O)c1ccc(C2CCC(C(O)c3c(C4CC4)ccc4cncn34)CC2)cc1 (stereo not drawn) [Example D124, 4-(4-((6-cyclopropylimidazo[1,5-a]pyridin-5-yl)(hydroxy)methyl)cyclohexyl)-N-methylbenzamide]
170 | > 10000 | 40 | OC(c1c(C2CC2)ccc2cncn12)C1CCC(c2ccc(F)cc2F)CC1 (stereo not drawn) [Example D127, (6-cyclopropylimidazo[1,5-a]pyridin-5-yl)(4-(2,4-difluorophenyl)cyclohexyl)methanol]
157 | > 10000 | 57 | CC(C)c1ccc2cncn2c1C(O)C1CCC(c2ccc(Cl)cc2)CC1 (stereo not drawn) [Example D115, (4-(4-chlorophenyl)cyclohexyl)(6-isopropylimidazo[1,5-a]pyridin-5-yl)methanol]
155 | > 10000 | 32 | OC(c1c(C2CC2)ccc2cncn12)C1CCC(c2ccc(OC3CCOCC3)cc2)CC1 (stereo not drawn) [Example D114, (6-cyclopropylimidazo[1,5-a]pyridin-5-yl)(4-(4-((tetrahydro-2H-pyran-4-yl)oxy)phenyl)cyclohexyl)methanol]
148 | > 10000 | 53 | OC(c1c(C2CC2)ccc2cncn12)C1CCC(c2ccc(F)c(Cl)c2)CC1 (stereo not drawn) [Example D129, (4-(3-chloro-4-fluorophenyl)cyclohexyl)(6-cyclopropylimidazo[1,5-a]pyridin-5-yl)methanol]
107 | > 10000 | 44 | OC(c1c(C2CC2)ccc2cncn12)C1CCC(c2cccc(Cl)c2)CC1 (stereo not drawn) [Example D116, (4-(3-chlorophenyl)cyclohexyl)(6-cyclopropylimidazo[1,5-a]pyridin-5-yl)methanol]
98 | > 10000 | 62 | OC(c1c(C2CC2)ccc2cncn12)C1CCC(c2ccc(F)c3ccccc23)CC1 (stereo not drawn) [Example D137, (6-cyclopropylimidazo[1,5-a]pyridin-5-yl)(4-(4-fluoronaphthalen-1-yl)cyclohexyl)methanol]
95 | > 10000 | 43 | COc1ccccc1C1CCC(C(O)c2c(C3CC3)ccc3cncn23)CC1 (stereo not drawn) [Example D113, (6-cyclopropylimidazo[1,5-a]pyridin-5-yl)(4-(2-methoxyphenyl)cyclohexyl)methanol]
64 | > 10000 | 40 | OC(c1c(C2CC2)ccc2cncn12)C1CCC(c2ccc(F)c(F)c2)CC1 (stereo not drawn) [Example D126, (6-cyclopropylimidazo[1,5-a]pyridin-5-yl)(4-(3,4-difluorophenyl)cyclohexyl)methanol]
50 | > 10000 | 43 | Oc1ccccc1C1CCC(C(O)c2c(C3CC3)ccc3cncn23)CC1 (stereo not drawn) [Example D112, 2-(4-((6-cyclopropylimidazo[1,5-a]pyridin-5-yl)(hydroxy)methyl)cyclohexyl)phenol]
32 | > 10000 | 32 | OC(c1c(C2CC2)ccc2cncn12)C1CCC(c2cccc3ccccc23)CC1 (stereo not drawn) [Example D135, (6-cyclopropylimidazo[1,5-a]pyridin-5-yl)(4-(naphthalen-1-yl)cyclohexyl)methanol]
